Measured values reported in patent US10913727B2, “Modulators of the integrated stress pathway” (Calico Life Sciences LLC, priority 2016, dated 2021).

System: HEK293T cells carrying the ATF4 luciferase reporter
Assay: ATF4-Luc assay, in vitro model of Vanishing Cell White Matter Disease (VWMD)
Assay type: cell-based
Conditions: Homo sapiens, HEK-293T, 1 μg/mL tunicamycin, 7 hours, One Glo luminescence
Outline: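 Compound at 200 nM and tunicamycin at 1 μg/mL were given together for 7 h to HEK293T cells stably transduced with an ATF4 5′-UTR-driven firefly luciferase reporter. Read-out by luminescence, reported as EC50.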

| Compound | EC50 [nM] |
| --- | --- |
| COc1cc(OC)cc(C(=O)NC23CC(NC(=O)COc4ccc(Cl)c(F)c4)(C2)C3)c1 [Compound 303, N-{3-[2-(4-chloro-3-fluorophenoxy)acetamido]bicyclo[1.1.1]pentan-1-yl}-3,5-dimethoxybenzamide] | 1000 to 2000 |
| O=C(COc1ccc(Cl)c(F)c1)NC12CC(NC(=O)c3cocn3)(C1)C2 [Compound 852, N-{3-[2-(4-chloro-3-fluorophenoxy)acetamido]bicyclo[1.1.1]pentan-1-yl}-1,3-oxazole-4-carboxamide] | 1000 to 2000 |
| Cc1noc(C)c1C(=O)NC12CC(NC(=O)COc3ccc(Cl)c(F)c3)(C1)C2 [Compound 312, N-{3-[2-(4-chloro-3-fluorophenoxy)acetamido]bicyclo[1.1.1]pentan-1-yl}-3,5-dimethyl-1,2-oxazole-4-carboxamide] | > 2000 |
| N#Cc1ccnc(C(=O)NC23CC(NC(=O)COc4ccc(Cl)c(F)c4)(C2)C3)c1 [Compound 182, N-{3-[2-(4-chloro-3-fluorophenoxy)acetamido]bicyclo[1.1.1]pentan-1-yl}-4-cyanopyridine-2-carboxamide] | 50 to 250 |
| Cc1cc(C(=O)NC23CCC(NC(=O)COc4ccc(Cl)c(F)c4)(CC2)C(O)C3)no1 (stereo not drawn) [Compound 272, N-{4-[2-(4-chloro-3-fluorophenoxy)acetamido]-3-hydroxybicyclo[2.2.2]octan-1-yl}-5-methyl-1,2-oxazole-3-carboxamide] | 50 to 250 |
| O=C(COc1ccc(Cl)c(F)c1)NC12CC(Nc3cnn(CC(F)(F)F)c(=O)c3Cl)(C1)C2 [Compound 416, 2-(4-chloro-3-fluorophenoxy)-N-(3-{[5-chloro-6-oxo-1-(2,2,2-trifluoroethyl)-1,6-dihydropyridazin-4-yl]amino}bicyclo[1.1.1]pentan-1-yl)acetamide] | > 2000 |
| O=C(COc1ccc(Cl)c(F)c1)NC12CCC(NC(=O)c3ccc(F)cn3)(CC1)CC2O (stereo not drawn) [Compound 230, N-{4-[2-(4-chloro-3-fluorophenoxy)acetamido]-3-hydroxybicyclo[2.2.2]octan-1-yl}-5-fluoropyridine-2-carboxamide] | 50 to 250 |
| O=C(COc1ccc(Cl)c(Cl)c1)NC12CC(NC(=O)c3ccc(CO)nc3)(C1)C2 [Compound 719, N-{3-[2-(3,4-dichlorophenoxy)acetamido]bicyclo[1.1.1]pentan-1-yl}-6-(hydroxymethyl)pyridine-3-carboxamide] | 1000 to 2000 |
| Cc1cccc(C(=O)NC23CC(NC(=O)COc4ccc(Cl)c(F)c4)(C2)C3)n1 [Compound 891, N-{3-[2-(4-chloro-3-fluorophenoxy)acetamido]bicyclo[1.1.1]pentan-1-yl}-6-methylpyridine-2-carboxamide] | 50 to 250 |
| O=C(COc1ccc(Cl)c(F)c1)NC12CC(NC(=O)c3ncc(F)cc3F)(C1)C2 [Compound 910, N-{3-[2-(4-chloro-3-fluorophenoxy)acetamido]bicyclo[1.1.1]pentan-1-yl}-3,5-difluoropyridine-2-carboxamide] | 50 to 250 |
| CCc1csc(C(=O)NC23CC(NC(=O)COc4ccc(Cl)c(F)c4)(C2)C3)n1 [Compound 919, N-{3-[2-(4-chloro-3-fluorophenoxy)acetamido]bicyclo[1.1.1]pentan-1-yl}-4-ethyl-1,3-thiazole-2-carboxamide] | < 50 |
| COc1cncc(C(=O)NC23CC(NC(=O)COc4ccc(Cl)c(F)c4)(C2)C3)c1 [Compound 790, N-{3-[2-(4-chloro-3-fluorophenoxy)acetamido]bicyclo[1.1.1]pentan-1-yl}-5-methoxypyridine-3-carboxamide] | 50 to 250 |
| Cc1nc2ccc(C(=O)NC34CC(NC(=O)COc5ccc(Cl)c(F)c5)(C3)C4)cc2s1 [Compound 774, N-{3-[2-(4-chloro-3-fluorophenoxy)acetamido]bicyclo[1.1.1]pentan-1-yl}-2-methyl-1,3-benzothiazole-6-carboxamide] | > 2000 |
| O=C(COc1ccc(Cl)c(F)c1)NC12CC(NC(=O)c3ccc4snnc4c3)(C1)C2 [Compound 800, N-{3-[2-(4-chloro-3-fluorophenoxy)acetamido]bicyclo[1.1.1]pentan-1-yl}-1,2,3-benzothiadiazole-5-carboxamide] | > 2000 |
| Cc1cc(C(=O)NC23CC(NC(=O)COc4ccc(Cl)c(F)c4)(C2)C3)nn1-c1ccc(Cl)cc1 [Compound 112, N-{3-[2-(4-chloro-3-fluorophenoxy)acetamido]bicyclo[1.1.1]pentan-1-yl}-1-(4-chlorophenyl)-5-methyl-1H-pyrazole-3-carboxamide] | 250 to 1000 |
| Cc1nnc(NC23CC(NC(=O)COc4ccc(Cl)c(F)c4)(C2)C3)o1 [Compound 393, 2-(4-chloro-3-fluorophenoxy)-N-{3-[(5-methyl-1,3,4-oxadiazol-2-yl)amino]bicyclo[1.1.1]pentan-1-yl}acetamide] | > 2000 |
| Cc1ccncc1C(=O)NC12CC(NC(=O)COc3ccc(Cl)c(F)c3)(C1)C2 [Compound 738, N-{3-[2-(4-chloro-3-fluorophenoxy)acetamido]bicyclo[1.1.1]pentan-1-yl}-4-methylpyridine-3-carboxamide] | > 2000 |

| Compound | EC50 [nM] |
| --- | --- |
| Cc1nc(C(=O)NC23CCC(NC(=O)COc4ccc(Cl)c(F)c4)(CC2)[C@H](O)C3)c(C)s1 [Compound 497, N-{(3R)-4-[2-(4-chloro-3-fluorophenoxy)acetamido]-3-hydroxybicyclo[2.2.2]octan-1-yl}-2,5-dimethyl-1,3-thiazole-4-carboxamide] | 250 to 1000 |
| Cc1ncc(C(=O)NC23CC(NC(=O)COc4ccc(Cl)c(F)c4)(C2)C3)cn1 [Compound 121, N-{3-[2-(4-chloro-3-fluorophenoxy)acetamido]bicyclo[1.1.1]pentan-1-yl}-2-methylpyrimidine-5-carboxamide] | 1000 to 2000 |
| O=C(COc1ccc(Cl)c(F)c1)NC12CCC(NC(=O)c3ccsc3)(CC1)CC2O (stereo not drawn) [Compound 591, N-{4-[2-(4-chloro-3-fluorophenoxy)acetamido]-3-hydroxybicyclo[2.2.2]octan-1-yl}thiophene-3-carboxamide] | 50 to 250 |
| O=C(COc1ccc(Cl)cc1)NC12CC(Nc3nnc(-c4ccc(Cl)cc4)s3)(C1)C2 [Compound 271, 2-(4-chlorophenoxy)-N-(3-{[5-(4-chlorophenyl)-1,3,4-thiadiazol-2-yl]amino}bicyclo[1.1.1]pentan-1-yl)acetamide] | 250 to 1000 |
| CC(C)Oc1ccc(C(=O)NC23CC(NC(=O)COc4ccc(Cl)c(F)c4)(C2)C3)cc1 [Compound 232, N-{3-[2-(4-chloro-3-fluorophenoxy)acetamido]bicyclo[1.1.1]pentan-1-yl}-4-[(propan-2-yl)oxy]benzamide] | 50 to 250 |
| Cn1nnc2cc(C(=O)NC34CC(NC(=O)COc5ccc(Cl)c(F)c5)(C3)C4)ccc21 [Compound 785, N-{3-[2-(4-chloro-3-fluorophenoxy)acetamido]bicyclo[1.1.1]pentan-1-yl}-1-methyl-1H-benzotriazole-5-carboxamide] | > 2000 |
| Cn1nc(C(=O)NC23CC(NC(=O)COc4ccc(Cl)c(F)c4)(C2)C3)cc1C(F)(F)F [Compound 789, N-{3-[2-(4-chloro-3-fluorophenoxy)acetamido]bicyclo[1.1.1]pentan-1-yl}-1-methyl-5-(trifluoromethyl)-1H-pyrazole-3-carboxamide] | 50 to 250 |
| Cc1cc(C)nc(C(=O)NC23CC(NC(=O)COc4ccc(Cl)c(F)c4)(C2)C3)c1 [Compound 889, N-{3-[2-(4-chloro-3-fluorophenoxy)acetamido]bicyclo[1.1.1]pentan-1-yl}-4,6-dimethylpyridine-2-carboxamide] | 1000 to 2000 |
| COc1ccc(F)cc1C(=O)NC12CC(NC(=O)COc3ccc(Cl)c(F)c3)(C1)C2 [Compound 540, N-{3-[2-(4-chloro-3-fluorophenoxy)acetamido]bicyclo[1.1.1]pentan-1-yl}-5-fluoro-2-methoxybenzamide] | 250 to 1000 |
| Cn1ncc(C(=O)NC23CC(NC(=O)COc4ccc(Cl)c(F)c4)(C2)C3)c1C(F)(F)F [Compound 874, N-{3-[2-(4-chloro-3-fluorophenoxy)acetamido]bicyclo[1.1.1]pentan-1-yl}-1-methyl-5-(trifluoromethyl)-1H-pyrazole-4-carboxamide] | > 2000 |
| Cc1oncc1C(=O)NC12CCC(NC(=O)COc3ccc(Cl)c(F)c3)(CC1)C(O)C2 (stereo not drawn) [Compound 604, N-{4-[2-(4-chloro-3-fluorophenoxy)acetamido]-3-hydroxybicyclo[2.2.2]octan-1-yl}-5-methyl-1,2-oxazole-4-carboxamide] | > 2000 |
| COCc1nc(C(=O)NC23CCC(NC(=O)COc4ccc(Cl)c(F)c4)(CC2)[C@@H](O)C3)cs1 [Compound 619, N-{(3S)-4-[2-(4-chloro-3-fluorophenoxy)acetamido]-3-hydroxybicyclo[2.2.2]octan-1-yl}-2-(methoxymethyl)-1,3-thiazole-4-carboxamide] | < 50 |
| CC(C)Cc1cc(C(=O)NC23CC(NC(=O)COc4ccc(Cl)c(F)c4)(C2)C3)on1 [Compound 348, N-{3-[2-(4-chloro-3-fluorophenoxy)acetamido]bicyclo[1.1.1]pentan-1-yl}-3-(2-methylpropyl)-1,2-oxazole-5-carboxamide] | 50 to 250 |
| O=C(COc1ccc2c(c1)OC(F)(F)O2)NC12CCC(NC(=O)c3cccc(F)c3)(CC1)C[C@@H]2O [Compound 635, N-[(3S)-4-{2-[(2,2-difluoro-2H-1,3-benzodioxol-5-yl)oxy]acetamido}-3-hydroxybicyclo[2.2.2]octan-1-yl]-3-fluorobenzamide] | 250 to 1000 |
| CS(=O)(=O)Nc1cccc(C(=O)NC23CC(NC(=O)COc4ccc(Cl)c(F)c4)(C2)C3)c1 [Compound 851, N-{3-[2-(4-chloro-3-fluorophenoxy)acetamido]bicyclo[1.1.1]pentan-1-yl}-3-[(methanesulfonyl)amino]benzamide] | 250 to 1000 |
| O=C(COc1ccc(Cl)c(Cl)c1)NC12CC(NC(=O)c3cnc4ccccc4n3)(C1)C2 [Compound 920, N-{3-[2-(3,4-dichlorophenoxy)acetamido]bicyclo[1.1.1]pentan-1-yl}quinoxaline-2-carboxamide] | < 50 |
